We go through 6 compounds from US20060069132A1, “Azolecarboxamide herbicides” (priority 2004, published 2006).

Where two headings read alike, the source gives them in different places.

For test [1], the system named is smallflower umbrella sedge. Kind of test: Test C flooded paddy test. The format is in vivo, Cyperus difformis. To be noted: for Plant response rating, Sedge, Umbrella / pest or weed control at 500 g/ha: 500 g ai/ha; for pest or weed control at 62 g/ha / pest or weed control at 125 g/ha / pest or weed control at 250 g/ha / pest or weed control at 500 g/ha: Cyperus difformis.

The test system of another test is barnyardgrass. Kind of test: Test B flooded paddy test. To be noted: 1000 g ai/ha, scale 0 to 100 (0 no effect, 100 complete control); for pest or weed control at 1000 g/ha: Echinochloa crus-galli, 336 h, read-out: Barnyardgrass plant response rating. The format is in vivo, Echinochloa crus-galli. In a few lines:
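Greenhouse test; postemergence application to plants at 1–4 leaves (2–18 cm); paddy species at 2 leaves; evaluated visually vs controls at 13–15 days; scale 0–100 (100 = complete control).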

For another test, the system named is morningglory. Description: Test B pre-/postemergence herbicide test. The format is in vivo, Ipomoea coccinea. The settings on record: for pest or weed control at 125 g/ha / pest or weed control at 500 g/ha: Ipomoea, 336 h. In short, it runs like this:
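Greenhouse pot assay with simultaneous preemergence (treated seed) and postemergence (2–18 cm seedlings) applications of surfactant-containing, non-phytotoxic solvent formulations. Response scored visually 13–15 days later on a 0–100 scale, 100 meaning complete control.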

The test system of another test is velvetleaf. Kind of test: Test A pre-/postemergence herbicide test. The format is in vivo, Abutilon theophrasti. The settings on record: Abutilon theophrasti, 240 h; for pest or weed control at 2000 g/ha: 2000 g ai/ha; for pest or weed control at 500 g/ha: 500 g ai/ha. In short, it runs like this:
(§1)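 Seeds sown in sandy loam received a preemergence directed soil spray of compound in non-phytotoxic solvent with surfactant; postemergence plants (2–10 cm, one- to two-leaf stage) were sprayed to runoff at the same time. After ~10 days in greenhouse, injury was rated visually versus untreated controls (0 = no effect, 100 = complete control).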

The test system of another test is large crabgrass. Description: Test A pre-/postemergence herbicide test. The format is in vivo, Digitaria sanguinalis. To be noted: Digitaria sanguinalis, 240 h; for pest or weed control at 500 g/ha: 500 g ai/ha; for pest or weed control at 2000 g/ha: 2000 g ai/ha. In short, it runs like this: as §1
The mark [2] stands for this setting: 125 g ai/ha, scale 0 to 100 (0 no effect, 100 complete control).
Setting [3] is: 250 g ai/ha, scale of 0 to 100, 0 is no effect, 100 is complete control.
Setting [4] is: visual rating after 12 to 14 days, scale 0 to 100 (0 no effect, 100 complete control).
Setting [5] is: 125 g ai/ha, 0 is no effect, 100 is complete control, preemergence.
Setting [6] is: Postemergence, 500 g ai/ha, scale 0 (no effect) to 100 (complete control).
Setting [7] is: postemergence, 125 g ai/ha, scale 0 to 100.
Setting [8] is: visual rating after 12 to 14 days, scale 0 to 100 (0 no effect, 100 complete control), read-out: Plant response rating, Sedge, Umbrella.
Setting [9] is: post-emergence, Postemergence, 0 to 100 scale, 0 no effect, 100 complete control, read-out: Plant response rating, Velvetleaf.
Setting [10] is: pre-emergence, Preemergence, visual rating, 0 to 100 scale (0 no effect, 100 complete control), read-out: Velvetleaf plant response rating.
The mark [11] stands for this setting: post-emergence, Postemergence, 0 to 100 scale, 0 no effect, 100 complete control, read-out: Plant response rating, Crabgrass, Large.
Where [12] appears, read: pre-emergence, Preemergence, visual rating, 0 to 100 scale (0 no effect, 100 complete control), read-out: Crabgrass, Large plant response rating.
[13] abbreviates: pre-emergence, preemergence, 125 g ai/ha, 0 to 100 scale, 0 is no effect, 100 is complete control, read-out: Plant response rating, Morningglory.

Take `C#CCNC(=O)c1cccc(NC(=O)c2nn(C(C)(C)C)nc2CC)c1` [Compound 380]: the “Sedge, Umbrella plant response rating” value in test [1] (62 g ai/ha, scale 0 to 100) is reported as 80; in test [1] (setting [2]), 85; in test [1] (setting [3]) it was 85. Besides, the “Plant response rating, Sedge, Umbrella” value in test [1] (setting [4]) was 90. In addition, the “Barnyardgrass plant response rating” value with barnyardgrass was 70. Moreover, the “Plant response rating (0 to 100 scale), Morningglory” value in the test with morningglory (setting [5]) is given as 10. Further, the “Morningglory plant response rating” value was found to be 20 in the test on morningglory (125 g ai/ha, visual rating, scale 0 (no effect) to 100 (complete control), postemergence) and 60 with morningglory (setting [6]).

Consider `C=CCOc1cccc(NC(=O)c2cc(C(C)(C)C)nn2CC)c1` [Compound 412], for which the “Sedge, Umbrella plant response rating” value is reported as 70 in test [1] (62 g ai/ha, scale 0 to 100); 75 in test [1] (setting [2]); 80 in test [1] (setting [3]). For the same compound, in test [1] (setting [4]), the “Plant response rating, Sedge, Umbrella” value was determined as 95. Further, in the test with barnyardgrass, the “Barnyardgrass plant response rating” value is 40. Also, the “Plant response rating (0 to 100 scale), Morningglory” value in the test on morningglory (setting [5]) is reported as 0. The “Morningglory plant response rating” value with morningglory (setting [6]) and with morningglory (setting [7]) was 0 each time.

For the compound `CCn1nc(C(C)(C)C)cc1C(=O)Nc1cccc(C(=O)NCC(F)(F)F)c1` [Compound 43, 3-(1,1-dimethylethyl)-1-ethyl-N-[3-[[(2,2,2-trifluoroethyl)amino]carbonyl]-phenyl]-1H-pyrazole-5-carboxamide], the pest or weed control at 62 g/ha in test [1] (62 g ai/ha, scale 0 to 100 (0 no effect, 100 complete control), read-out: Sedge, Umbrella plant response rating) was found to be 30%. Besides, the pest or weed control at 125 g/ha in test [1] (125 g ai/ha, scale of 0 to 100, 0 is no effect, 100 is complete control, read-out: Sedge, Umbrella plant response rating) worked out at 50%; with morningglory (post-emergence, Postemergence, 125 g ai/ha, scale 0 (no effect) to 100 (complete control), read-out: Morningglory plant response rating), 80%; with morningglory (setting [13]) it was 0%. Moreover, the pest or weed control at 250 g/ha in test [1] (250 g ai/ha, visual rating after 12 to 14 days, scale 0 to 100 (0 no effect, 100 complete control), read-out: Plant response rating, Sedge, Umbrella) is 70%. For the same compound, the pest or weed control at 500 g/ha in test [1] (setting [8]) was determined as 80%; with velvetleaf (setting [10]), 5%; in the test with large crabgrass (setting [11]) it was 65%; in the test on large crabgrass (setting [12]) it was 75%; with morningglory (post-emergence, Postemergence, 500 g ai/ha, visual rating after 13 to 15 days, scale 0 (no effect) to 100 (complete control), read-out: Plant response rating, Morningglory), 100%; in the test with morningglory (pre-emergence, Preemergence, 500 g ai/ha, scale 0 to 100, read-out: Morningglory plant response rating), 10%. Also, the pest or weed control at 2000 g/ha with velvetleaf (setting [9]) worked out at 30%; in the test with velvetleaf (pre-emergence, Preemergence, 0 to 100 scale, 0 no effect, 100 complete control, read-out: Velvetleaf plant response rating), 60%; in the test on large crabgrass (setting [11]), 90%; in the test with large crabgrass (pre-emergence, Preemergence, 0 to 100 scale, 0 no effect, 100 complete control, read-out: Crabgrass, Large plant response rating), 90%. For the same compound, in the test on barnyardgrass (visual rating, 13 to 15 days), the pest or weed control at 1000 g/ha amounted to 80%.

As to `C#CCOc1cccc(NC(=O)c2cc(C(C)(C)C)nn2CC)c1` [Compound 411], the “Sedge, Umbrella plant response rating” value in test [1] (62 g ai/ha, scale 0 to 100) is on record as 60; in test [1] (setting [2]), 75; in test [1] (setting [3]), 80. In test [1] (setting [4]), the “Plant response rating, Sedge, Umbrella” value was 85. For the same compound, the “Barnyardgrass plant response rating” value in the test on barnyardgrass stood at 50. Further, in the test on morningglory (setting [5]), the “Plant response rating (0 to 100 scale), Morningglory” value was found to be 0. The “Morningglory plant response rating” value in the test on morningglory (setting [6]) and in the test with morningglory (setting [7]) was 0 in each case.

Take `CCc1nn(C(C)C)nc1C(=O)Nc1cccc(C(=O)N(C)C)c1` [Compound 358, N-[3-[(dimethylamino)carbonyl)phenyl]-5-ethyl-2-(1-methylethyl)-2H-1,2,3-triazole-4-carboxamide]: the pest or weed control at 62 g/ha in test [1] (62 g ai/ha, scale 0 to 100, read-out: Sedge, Umbrella plant response rating) was found to be 15%. Besides, the pest or weed control at 125 g/ha in test [1] (125 g ai/ha, scale 0 to 100 (0 no effect, 100 complete control), read-out: Sedge, Umbrella plant response rating) came out at 85%; in the test with morningglory (post-emergence, 125 g ai/ha, visual rating, scale 0 (no effect) to 100 (complete control), read-out: Morningglory plant response rating), 20%. The pest or weed control at 250 g/ha in test [1] (250 g ai/ha, scale of 0 to 100, 0 is no effect, 100 is complete control, read-out: Sedge, Umbrella plant response rating) stood at 85%. Moreover, the pest or weed control at 500 g/ha came to 85% in test [1] (setting [8]); 50% in the test with morningglory (post-emergence, postemergence, 500 g ai/ha, scale 0 to 100, 0 is no effect, 100 is complete control, read-out: Morningglory plant response rating); 100% in the test with morningglory (pre-emergence, 500 g ai/ha, visual rating, 0 = no effect, 100 = complete control, read-out: Plant response rating, Morningglory). Moreover, the pest or weed control at 1000 g/ha in the test on barnyardgrass was 80%. Further, the “Plant response rating (0 to 100 scale), Morningglory” value in the test with morningglory (setting [5]) was found to be 50.

As for `CCn1nc(C(C)(C)C)cc1C(=O)Nc1cccc(C(=O)OC)n1` [Compound 143, methyl 6-[[[3-(1,1-dimethylethyl)-1-ethyl-1H-pyrazol-5-yl]carbonyl]amino]-2-pyridinecarboxylate], the pest or weed control at 500 g/ha was found to be 0% in the test with velvetleaf (post-emergence, Postemergence, 0 to 100 scale, 0 no effect, 100 complete control, read-out: Velvetleaf plant response rating); 0% in the test on velvetleaf (pre-emergence, preemergence, visual injury, 0 to 100 scale (0 no effect, 100 complete control), read-out: Velvetleaf plant response rating); 20% with large crabgrass (post-emergence, Postemergence, 0 to 100 scale, 0 no effect, 100 complete control, read-out: Crabgrass, Large plant response rating); 0% in the test on large crabgrass (setting [12]); 0% in the test with morningglory (post-emergence, postemergence, 500 g ai/ha, visual rating, scale 0 (no effect) to 100 (complete control), read-out: Morningglory plant response rating); 0% in the test on morningglory (pre-emergence, 500 g ai/ha, visual rating 0-100, 0 no effect, 100 complete control, read-out: Plant response rating, Morningglory). Moreover, the pest or weed control at 2000 g/ha stood at 15% in the test with velvetleaf (setting [9]), 0% with velvetleaf (setting [10]), 30% in the test with large crabgrass (setting [11]) and 15% in the test on large crabgrass (setting [12]). Also, the pest or weed control at 1000 g/ha in the test on barnyardgrass (visual rating, 13 to 15 days) amounted to 0%. For the same compound, the pest or weed control at 125 g/ha with morningglory (post-emergence, postemergence, 125 g ai/ha, visual rating, scale 0 (no effect) to 100 (complete control), read-out: Morningglory plant response rating) turned out to be 0%; in the test on morningglory (setting [13]), 0%.
